Test results: the NIST ThermoML archive (doi:10.1016/j.jct.2004.11.012)
Numbers after ± are expanded uncertainties.

Settings: 101.33 kPa, Liquid

Compound	mass density (298.15 K) [kg/m3]	mass density (308.15 K) [kg/m3]
C=COC(C)=O [vinyl acetate]	925.775 ± 0.16	913.134 ± 0.16
COC(C)(C)C [2-methoxy-2-methylpropane]	735.356 ± 0.27	724.85 ± 0.28

Second part, the compound after the results:

mass density (298.15 K) [kg/m3]	mass density (308.15 K) [kg/m3]	Compound
927.997 ± 0.17	917.423 ± 0.18	C=CCOC(=O)C(=C)C [2-propenyl 2-methylpropenoate]
890.438 ± 0.28	880.857 ± 0.28	C=C(C)C(=O)OCCCC [butyl 2-methyl-2-propenoate]
1009.13 ± 0.13	998.64 ± 0.13	C=C(C)C(=O)O [2-methyl-2-propenoic acid]
